# Laboratory results taken from the NIST ThermoML archive (doi:10.1016/j.fluid.2015.03.015).
# ± gives the expanded uncertainty stated by the source.
# Assay: refractive index (other wavelength) (dimensionless); xn = mol fraction of the nth substance listed
smiles,measurement,setting,value
CCCCCCCC[n+]1ccn(C)c1.F[B-](F)(F)F [1-methyl-3-octylimidazolium tetrafluoroborate] + CCCCCCCO,refractive index,"298.87 K, Liquid mixture 1, Wavelength=623.8 nm, Minimum deviation, x1 = 0.01",1.4213 ± 0.0003
same,refractive index,"298.87 K, Liquid mixture 2, Wavelength=623.8 nm, Minimum deviation, x1 = 0.382",1.4264 ± 0.0003
same,refractive index,"299.67 K, Liquid mixture 1, Wavelength=623.8 nm, Minimum deviation, x1 = 0.011",1.421 ± 0.0003
same,refractive index,"299.67 K, Liquid mixture 2, Wavelength=623.8 nm, Minimum deviation, x1 = 0.371",1.426 ± 0.0003
same,refractive index,"300.45 K, Liquid mixture 1, Wavelength=623.8 nm, Minimum deviation, x1 = 0.011",1.4207 ± 0.0003
same,refractive index,"300.45 K, Liquid mixture 2, Wavelength=623.8 nm, Minimum deviation, x1 = 0.359",1.4256 ± 0.0003
same,refractive index,"301.2 K, Liquid mixture 1, Wavelength=623.8 nm, Minimum deviation, x1 = 0.016",1.4205 ± 0.0003
same,refractive index,"301.2 K, Liquid mixture 2, Wavelength=623.8 nm, Minimum deviation, x1 = 0.347",1.4252 ± 0.0003
same,refractive index,"301.61 K, 85 kPa, Liquid, Wavelength=632.8 nm, Minimum Deviation, x1 = 0.7",1.4285 ± 0.0003
same,refractive index,"301.93 K, Liquid mixture 1, Wavelength=623.8 nm, Minimum deviation, x1 = 0.015",1.4202 ± 0.0003
same,refractive index,"301.93 K, Liquid mixture 2, Wavelength=623.8 nm, Minimum deviation, x1 = 0.335",1.4248 ± 0.0003
same,refractive index,"302.37 K, 85 kPa, Liquid, Wavelength=632.8 nm, Minimum Deviation, x1 = 0.8",1.429 ± 0.0003
same,refractive index,"302.37 K, 85 kPa, Liquid, Wavelength=632.8 nm, Minimum Deviation, x1 = 0.898",1.4299 ± 0.0003
same,refractive index,"302.63 K, Liquid mixture 1, Wavelength=623.8 nm, Minimum deviation, x1 = 0.019",1.42 ± 0.0003
same,refractive index,"302.63 K, Liquid mixture 2, Wavelength=623.8 nm, Minimum deviation, x1 = 0.33",1.4245 ± 0.0003
same,refractive index,"303.31 K, Liquid mixture 1, Wavelength=623.8 nm, Minimum deviation, x1 = 0.023",1.4198 ± 0.0003
same,refractive index,"303.31 K, Liquid mixture 2, Wavelength=623.8 nm, Minimum deviation, x1 = 0.317",1.4241 ± 0.0003
same,refractive index,"303.54 K, 85 kPa, Liquid, Wavelength=632.8 nm, Minimum Deviation, x1 = 0.7",1.4279 ± 0.0003
same,refractive index,"303.94 K, 85 kPa, Liquid, Wavelength=632.8 nm, Minimum Deviation, x1 = 0.898",1.4295 ± 0.0003
same,refractive index,"303.94 K, Liquid mixture 1, Wavelength=623.8 nm, Minimum deviation, x1 = 0.025",1.4196 ± 0.0003
same,refractive index,"303.94 K, Liquid mixture 2, Wavelength=623.8 nm, Minimum deviation, x1 = 0.302",1.4237 ± 0.0003
same,refractive index,"303.98 K, 85 kPa, Liquid, Wavelength=632.8 nm, Minimum Deviation, x1 = 0.8",1.4286 ± 0.0003
same,refractive index,"304.5 K, Liquid mixture 1, Wavelength=623.8 nm, Minimum deviation, x1 = 0.027",1.4194 ± 0.0003
same,refractive index,"304.5 K, Liquid mixture 2, Wavelength=623.8 nm, Minimum deviation, x1 = 0.294",1.4234 ± 0.0003
same,refractive index,"305 K, Liquid mixture 1, Wavelength=623.8 nm, Minimum deviation, x1 = 0.031",1.4193 ± 0.0003
same,refractive index,"305 K, Liquid mixture 2, Wavelength=623.8 nm, Minimum deviation, x1 = 0.284",1.4231 ± 0.0003
same,refractive index,"305.36 K, 85 kPa, Liquid, Wavelength=632.8 nm, Minimum Deviation, x1 = 0.7",1.4274 ± 0.0003
same,refractive index,"305.41 K, Liquid mixture 1, Wavelength=623.8 nm, Minimum deviation, x1 = 0.035",1.4192 ± 0.0003
same,refractive index,"305.41 K, Liquid mixture 2, Wavelength=623.8 nm, Minimum deviation, x1 = 0.272",1.4228 ± 0.0003
same,refractive index,"305.43 K, 85 kPa, Liquid, Wavelength=632.8 nm, Minimum Deviation, x1 = 0.898",1.4291 ± 0.0003
same,refractive index,"305.58 K, 85 kPa, Liquid, Wavelength=632.8 nm, Minimum Deviation, x1 = 0.5",1.4254 ± 0.0003
same,refractive index,"305.64 K, 85 kPa, Liquid, Wavelength=632.8 nm, Minimum Deviation, x1 = 0.8",1.4282 ± 0.0003
same,refractive index,"305.78 K, Liquid mixture 1, Wavelength=623.8 nm, Minimum deviation, x1 = 0.037",1.4191 ± 0.0003
same,refractive index,"305.78 K, Liquid mixture 2, Wavelength=623.8 nm, Minimum deviation, x1 = 0.259",1.4225 ± 0.0003
same,refractive index,"306.09 K, Liquid mixture 1, Wavelength=623.8 nm, Minimum deviation, x1 = 0.038",1.419 ± 0.0003
same,refractive index,"306.09 K, Liquid mixture 2, Wavelength=623.8 nm, Minimum deviation, x1 = 0.253",1.4223 ± 0.0003
same,refractive index,"306.34 K, Liquid mixture 1, Wavelength=623.8 nm, Minimum deviation, x1 = 0.043",1.419 ± 0.0003
same,refractive index,"306.34 K, Liquid mixture 2, Wavelength=623.8 nm, Minimum deviation, x1 = 0.244",1.4221 ± 0.0003
same,refractive index,"306.54 K, Liquid mixture 1, Wavelength=623.8 nm, Minimum deviation, x1 = 0.048",1.419 ± 0.0003
same,refractive index,"306.54 K, Liquid mixture 2, Wavelength=623.8 nm, Minimum deviation, x1 = 0.242",1.422 ± 0.0003
same,refractive index,"306.7 K, Liquid mixture 1, Wavelength=623.8 nm, Minimum deviation, x1 = 0.051",1.419 ± 0.0003
same,refractive index,"306.7 K, Liquid mixture 2, Wavelength=623.8 nm, Minimum deviation, x1 = 0.232",1.4218 ± 0.0003
same,refractive index,"306.75 K, 85 kPa, Liquid, Wavelength=632.8 nm, Minimum Deviation, x1 = 0.6",1.4262 ± 0.0003
same,refractive index,"306.83 K, Liquid mixture 1, Wavelength=623.8 nm, Minimum deviation, x1 = 0.06",1.4191 ± 0.0003
same,refractive index,"306.83 K, Liquid mixture 2, Wavelength=623.8 nm, Minimum deviation, x1 = 0.228",1.4217 ± 0.0003
same,refractive index,"306.93 K, Liquid mixture 1, Wavelength=623.8 nm, Minimum deviation, x1 = 0.062",1.4191 ± 0.0003
same,refractive index,"306.93 K, Liquid mixture 2, Wavelength=623.8 nm, Minimum deviation, x1 = 0.224",1.4216 ± 0.0003
same,refractive index,"307.02 K, Liquid mixture 1, Wavelength=623.8 nm, Minimum deviation, x1 = 0.064",1.4191 ± 0.0003
same,refractive index,"307.02 K, Liquid mixture 2, Wavelength=623.8 nm, Minimum deviation, x1 = 0.219",1.4215 ± 0.0003
same,refractive index,"307.04 K, 85 kPa, Liquid, Wavelength=632.8 nm, Minimum Deviation, x1 = 0.7",1.4269 ± 0.0003
same,refractive index,"307.1 K, 85 kPa, Liquid, Wavelength=632.8 nm, Minimum Deviation, x1 = 0.8",1.4278 ± 0.0003
same,refractive index,"307.1 K, Liquid mixture 1, Wavelength=623.8 nm, Minimum deviation, x1 = 0.071",1.4192 ± 0.0003
same,refractive index,"307.1 K, Liquid mixture 2, Wavelength=623.8 nm, Minimum deviation, x1 = 0.221",1.4215 ± 0.0003
same,refractive index,"307.12 K, 85 kPa, Liquid, Wavelength=632.8 nm, Minimum Deviation, x1 = 0.898",1.4286 ± 0.0003
same,refractive index,"307.16 K, Liquid mixture 1, Wavelength=623.8 nm, Minimum deviation, x1 = 0.073",1.4192 ± 0.0003
same,refractive index,"307.16 K, Liquid mixture 2, Wavelength=623.8 nm, Minimum deviation, x1 = 0.215",1.4214 ± 0.0003
same,refractive index,"307.21 K, 85 kPa, Liquid, Wavelength=632.8 nm, Minimum Deviation, x1 = 0.5",1.4249 ± 0.0003
same,refractive index,"307.21 K, Liquid mixture 1, Wavelength=623.8 nm, Minimum deviation, x1 = 0.08",1.4193 ± 0.0003
same,refractive index,"307.21 K, Liquid mixture 2, Wavelength=623.8 nm, Minimum deviation, x1 = 0.217",1.4214 ± 0.0003
same,refractive index,"307.26 K, Liquid mixture 1, Wavelength=623.8 nm, Minimum deviation, x1 = 0.081",1.4193 ± 0.0003
same,refractive index,"307.26 K, Liquid mixture 2, Wavelength=623.8 nm, Minimum deviation, x1 = 0.211",1.4213 ± 0.0003
same,refractive index,"307.3 K, Liquid mixture 1, Wavelength=623.8 nm, Minimum deviation, x1 = 0.081",1.4193 ± 0.0003
same,refractive index,"307.3 K, Liquid mixture 2, Wavelength=623.8 nm, Minimum deviation, x1 = 0.204",1.4212 ± 0.0003
same,refractive index,"307.33 K, Liquid mixture 1, Wavelength=623.8 nm, Minimum deviation, x1 = 0.082",1.4193 ± 0.0003
same,refractive index,"307.33 K, Liquid mixture 2, Wavelength=623.8 nm, Minimum deviation, x1 = 0.198",1.4211 ± 0.0003
same,refractive index,"307.36 K, Liquid mixture 1, Wavelength=623.8 nm, Minimum deviation, x1 = 0.089",1.4194 ± 0.0003
